Publication PMC4858918, “Improving the N-terminal diversity of sansanmycin through mutasynthesis” (Microbial Cell Factories, 2016)
Values after ≈ are worked out from the molar mass of the structure shown.

Legend:
Experiment in all cases: MIC, microplate Alamar blue assay (MABA)
Format in all cases: cell-based
[1] = test system: M. tuberculosis FJ05189 (MDR clinical isolate); settings: Mycobacterium tuberculosis, read-out: MIC M. tuberculosis FJ05189
[2] = test system: M. tuberculosis FJ05120 (MDR clinical isolate); settings: Mycobacterium tuberculosis, read-out: MIC M. tuberculosis FJ05120
[3] = test system: M. tuberculosis FJ05195 (XDR clinical isolate); settings: Mycobacterium tuberculosis, read-out: MIC M. tuberculosis FJ05195

CC[C@@H](CO)NCCN[C@@H](CC)CO [Ethambutol]
MIC [1]: 2 µg/mL (≈ 9.79 µM)
MIC [2]: 0.5 µg/mL (≈ 2.45 µM)
MIC [3]: > 128 µg/mL

NNC(=O)c1ccncc1 [Isoniazid]
MIC [1]: 8 µg/mL (≈ 58.3 µM)
MIC [2]: 16 µg/mL (≈ 117 µM)
MIC [3]: > 128 µg/mL

CO[C@H]1/C=C/O[C@@]2(C)Oc3c(C)c(O)c4c(O)c(c(/C=N/N5CCN(C)CC5)c(O)c4c3C2=O)NC(=O)/C(C)=C\C=C\[C@H](C)[C@H](O)[C@@H](C)[C@@H](O)[C@@H](C)[C@H](OC(C)=O)[C@@H]1C [Rifampicin]
MIC [1]: 4 µg/mL (≈ 4.86 µM)
MIC [2]: > 128 µg/mL
MIC [3]: > 128 µg/mL

[H]/N=C(/N)N[C@H]1[C@H](O)[C@@H](O)[C@H](O[C@@H]2O[C@@H](C)[C@](O)(C=O)[C@H]2O[C@@H]2O[C@@H](CO)[C@H](O)[C@@H](O)[C@@H]2NC)[C@@H](N/C(N)=N\[H])[C@@H]1O [Streptomycin]
MIC [1]: < 0.06 µg/mL
MIC [2]: < 0.06 µg/mL
MIC [3]: > 128 µg/mL
